Earlier results in patent US5670479A, “α-ketoamide derivatives as inhibitors of thrombosis” (Corvas International, Inc., priority 1994, dated 1997).
≈ marks a conversion by molar mass, not a printed value.

Legend:
[1] = target: T1, microsomal aminopeptidase (Sus scrofa, UniProt P15145); details: Ocain et al. 1992; cited from earlier work
T1 sequence (P15145 1-963): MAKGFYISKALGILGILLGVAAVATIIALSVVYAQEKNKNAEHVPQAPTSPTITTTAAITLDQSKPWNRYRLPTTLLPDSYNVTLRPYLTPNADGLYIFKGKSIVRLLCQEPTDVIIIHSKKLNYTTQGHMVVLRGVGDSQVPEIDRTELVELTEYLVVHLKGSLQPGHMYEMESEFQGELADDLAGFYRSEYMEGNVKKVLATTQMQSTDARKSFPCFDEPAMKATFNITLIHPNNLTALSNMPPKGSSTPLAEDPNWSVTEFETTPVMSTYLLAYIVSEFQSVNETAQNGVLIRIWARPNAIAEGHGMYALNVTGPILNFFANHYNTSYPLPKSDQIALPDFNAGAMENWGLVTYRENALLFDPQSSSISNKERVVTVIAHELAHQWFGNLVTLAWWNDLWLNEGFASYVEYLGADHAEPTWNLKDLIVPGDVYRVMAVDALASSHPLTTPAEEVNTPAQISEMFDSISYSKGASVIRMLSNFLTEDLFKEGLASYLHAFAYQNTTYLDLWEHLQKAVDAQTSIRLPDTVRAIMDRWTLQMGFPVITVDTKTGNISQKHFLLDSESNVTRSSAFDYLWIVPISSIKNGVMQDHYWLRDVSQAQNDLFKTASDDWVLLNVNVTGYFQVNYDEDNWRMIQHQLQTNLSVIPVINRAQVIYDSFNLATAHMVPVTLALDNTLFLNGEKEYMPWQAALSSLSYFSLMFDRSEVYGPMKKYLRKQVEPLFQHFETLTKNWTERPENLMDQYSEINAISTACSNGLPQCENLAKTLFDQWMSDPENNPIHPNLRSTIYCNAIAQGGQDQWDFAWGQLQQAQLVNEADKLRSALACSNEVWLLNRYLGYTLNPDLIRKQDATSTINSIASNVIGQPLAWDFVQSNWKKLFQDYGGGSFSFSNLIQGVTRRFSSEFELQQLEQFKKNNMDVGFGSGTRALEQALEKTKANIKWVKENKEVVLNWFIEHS

baboons [2] = details: baboon; dose which gives a 50% inhibition of platelet deposition; other direct antithrombins evaluated earlier in this model; cited from earlier work
baboons [3] = details: baboon, other direct antithrombins evaluated earlier in this model, cited from earlier work; for Antihemostatic Effects APTT: control 32 sec; for Antihemostatic Effects Bleeding Time: control 4 min
thrombin [4] = details: Fusetani et al.; cited from earlier work
thrombin [5] = target: thrombin (Homo sapiens, UniProt P00734); details: reported in literature; cited from earlier work

Row | Compound | Antithrombotic Effects ED50 (baboons [2]) | Antihemostatic Effects APTT (baboons [3]) | Antihemostatic Effects Bleeding Time (baboons [3]) | other results
1 | NC(=O)C(=O)C(N)Cc1ccccc1 (centres unmarked) [3-Amino-2-oxo-4-phenylbutanoic acid amide] |  |  |  | Ki [1]: 2500 nM
2 | CC1CNc2c(cccc2S(=O)(=O)N[C@@H](CCCNC(=N)N)C(=O)N2CC[C@@H](C)C[C@@H]2C(=O)O)C1 (stereo partly drawn) [Argatroban, 2R,4R-4-methyl-1-[N-2-(3-methyl-1,2,3,4-tetrahydro-8-quinolinesulfonyl)-L-argininal]-2-piperdinecarboxylic acid] | > 800 nmol/kg/min | > 300 s |  | 
3 | N=C(N)NCCC[C@@H]1NC(=O)[C@@H]2CCCN2C(=O)[C@@H](NC=O)CNC(=O)/C=C/[C@H](Cc2ccc(O)cc2)NC(=O)[C@@H](Cc2ccccc2)NC(=O)C1=O [Cyclotheonamide A] |  |  |  | IC50 (thrombin) (thrombin [4]): 76 µg/mL (≈ 104 µM)
4 | N=C(N)NCCC[C@@H](C=O)NC(=O)[C@@H]1CCCN1C(=O)[C@H](N)Cc1ccccc1 [dF-P-R-al, D-phenylalanyl-prolyl-argininal] | 250 nmol/kg/min | 145 s | 14 min | 
5 | NC(N)=NCCC[C@H](NC(=O)[C@@H]1CCCN1C(=O)[C@H](N)Cc1ccccc1)B(O)O [dF-P-boroR, D-phenyalanyl-prolinyl-boroarginine] | 25 nmol/kg/min | 95 s | 12 min | 
6 | N-acetyl-D-Phe-Pro Arg-[yC(=O)--CH2 ]--CH2 --CH2 --CH2 --(C=O)-Gln-Ser-His-Asn-Asp-Gly-Asp-Phe-Glu-Glu-Ile-Pro-Glu-Glu-Tyr-Leu-Gln |  |  |  | Ki (thrombin [5]): 0.14 nM
